Data from PubChem BioAssay (NCI).
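Five compound concentrations were applied to cells in 96-well plates for 48 hours; endpoints were derived by simple linear interpolation of the resulting dose-response curve. Abbreviation: GI50, concentration required for 50% inhibition of growth. TGI denotes the concentration required for complete inhibition of growth.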

Columns and labels:
Experiment in all cases: inhibition of tumour cell growth, NCI panel, 48 h; in the data active = GI50 below about 0.43 µM; inactive = the rest
[1] = test system: UACC-257 melanoma
[2] = test system: OVCAR-5 ovarian
[3] = test system: SNB-19 CNS
[4] = test system: SF-539 CNS
[5] = test system: CAKI-1 renal
[6] = test system: MCF7 breast
[7] = test system: IGROV1 ovarian
[8] = test system: NCI-H23 lung
[9] = test system: HCT-116 colon
[10] = test system: ACHN renal
[11] = test system: SK-MEL-2 melanoma
[12] = test system: HOP-92 NSCLC
[13] = test system: SW-620 colon
[14] = test system: COLO 205 colon
[15] = test system: SN12C renal
[16] = test system: SK-MEL-5 melanoma
[17] = test system: 786-0 renal
[18] = test system: DU-145 prostate
[19] = test system: T-47D breast
[20] = test system: A549 NSCLC
[21] = test system: MDA-MB-435
[22] = test system: RPMI-8226 leukemia
[23] = test system: OVCAR-3 ovarian
[24] = test system: EKVX NSCLC
[25] = test system: MDA-MB-231 breast
[26] = test system: NCI/ADR-RES ovarian
[27] = test system: KM12 colon

Clc1ccc(Cc2nc3cc4ccccc4cc3[nH]2)cc1
96.1 µM: TGI [25]
43.2 µM: TGI [17]
inactive: GI50 [1] > 100 µM | GI50 [2] 26.3 µM | GI50 [3] 20 µM | GI50 [4] 3.08 µM | GI50 [5] 6.55 µM | GI50 [6] 17.1 µM | GI50 [7] 26 µM | GI50 [8] 28.8 µM | GI50 [9] 5.06 µM | GI50 [10] 18.8 µM | GI50 [11] > 100 µM | GI50 [12] 19.5 µM | GI50 [13] 6.55 µM | GI50 [14] 8.64 µM | GI50 [15] 94.8 µM | GI50 [16] 3.17 µM | GI50 [17] 8.99 µM | GI50 [18] 17.1 µM | GI50 [19] 23.1 µM | GI50 [20] 6.83 µM | GI50 [21] 27.8 µM | GI50 [22] 9.77 µM | GI50 [23] 14.4 µM | GI50 [24] 26.9 µM | GI50 [25] 25.4 µM | GI50 [26] 22.9 µM | GI50 [27] 9.64 µM
57.7 µM: TGI [10]
69.9 µM: TGI [5]
> 100 µM: TGI [1] | TGI [2] | TGI [3] | TGI [6] | TGI [7] | TGI [8] | TGI [11] | TGI [12] | TGI [13] | TGI [14] | TGI [15] | TGI [16] | TGI [18] | TGI [20] | TGI [21] | TGI [22] | TGI [23] | TGI [24] | TGI [26] | TGI [27]
20.6 µM: TGI [9]
88.6 µM: TGI [19]
81.1 µM: TGI [4]
